Results published in patent publication US20250179077A1, “QUINAZOLINE COMPOUNDS AND USES THEREOF AS INHIBITORS OF MUTANT KRAS PROTEINS” (AMGEN INC., priority 2022, published 2025).
Where two headings read alike, the source gives them in different places.

Columns and labels:
[1] = molecular target: His-tagged KRAS G12D protein (Homo sapiens, UniProt P01116, G12D); test: KRAS G12D TR-FRET Assay; type: binding
Outline: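 His-KRAS G12D (20 nM) was preincubated with titrated compound for 30 min at RT in HEPES pH 7.4 buffer with MgCl2, 10 μM GDP. Biotin-KRPep-2d (20 nM) was then added for 1 h, followed by Eu-anti-His/streptavidin-d2 for 1 h. The 665/615 nm TR-FRET ratio was fitted 4-parameter to give IC50.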

[2] = molecular target: GDP-bound KRAS protein (aa 1-169), containing both G12D and C118A amino acid substitutions (Homo sapiens, UniProt P01116, C118A/G12D); test: KRAS G12D Coupled Nucleotide Exchange Assay; type: biochemical
Method: KRAS G12D Coupled Nucleotide Exchange Assay
Following compound pre-incubation, purified SOS protein (aa 564-1049) and GTP (Roche 10106399001) were added to the assay wells and incubated for an additional 30 min. […] The assay plates were then read on a PerkinElmer EnVision Multilabel Reader, using AlphaScreen® technology, and data were analyzed using a 4-parameter logistic model to calculate IC50 values.

[3] = tested on: Phosphorylation of ERK1/2 in AsPC-1 cells; test: Phospho-ERK1/2 MSD Assay; type: cell-based
Outline: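 Phospho-ERK1/2 was quantified by MSD whole-cell lysate immunoassay in RIPA lysates made with protease/phosphatase inhibitors. A 4-parameter logistic model gave IC50.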

[4] = Homo sapiens, ASPC1, 2 h, read-out: 2 h p-ERK (AsPC-1 cells), IC50, AsPC-1 cells, 2 h compound treatment

Sequence of GDP-bound KRAS protein (aa 1-169), containing both G12D and C118A amino acid substitutions (P01116 1-169 isoform P01116-2 G12D/C118A): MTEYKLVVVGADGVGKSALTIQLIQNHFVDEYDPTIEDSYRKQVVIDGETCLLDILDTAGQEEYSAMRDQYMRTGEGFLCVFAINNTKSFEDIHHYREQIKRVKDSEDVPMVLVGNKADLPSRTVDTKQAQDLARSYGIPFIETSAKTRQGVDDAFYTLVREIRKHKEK
Sequence of His-tagged KRAS G12D protein (P01116 1-188 isoform P01116-2 G12D): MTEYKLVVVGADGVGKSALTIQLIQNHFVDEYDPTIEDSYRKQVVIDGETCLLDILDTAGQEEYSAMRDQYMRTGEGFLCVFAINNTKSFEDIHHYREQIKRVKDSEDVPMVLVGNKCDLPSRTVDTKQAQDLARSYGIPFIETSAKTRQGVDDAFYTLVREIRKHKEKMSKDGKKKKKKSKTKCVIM

| Compound | IC50 [1] [nM] | IC50 [2] [nM] | IC50 [3, 4] [nM] | IC50 ([3]; read-out: 2 h p-ERK (AsPC-1 cells), IC50, AsPC-1 cells, 2 h compound treatment) [nM] |
| --- | --- | --- | --- | --- |
| C/C=C\c1c(Cl)cc2[nH]ncc2c1-c1ccc2c(N3CCC[C@@](C)(O)C3)nc(OC[C@@]34CCCN3C[C@H](F)C4)nc2c1F [Example 108, (3R)-1-(7-(6-Chloro-5-((Z)-prop-1-en-1-yl)-1H-indazol-4-yl)-8-fluoro-2-(((2R,7aS)-2-fluorotetrahydro-1H-pyrrolizin-7a(5H)-yl)methoxy)quinazolin-4-yl)-3-methylpiperidin-3-ol] | 4 | 3 | 115 | – |
| C/C=C\c1c(C)cc2[nH]ncc2c1-c1ccc2c(N3CCOC[C@@](C)(O)C3)nc(OC[C@@]34CCCN3C[C@H](F)C4)nc2c1F [Example 106, (6S)-4-(8-Fluoro-2-(((2R,7aS)-2-fluorotetrahydro-1H-pyrrolizin-7a(5H)-yl)methoxy)-7-(6-methyl-5-((Z)-prop-1-en-1-yl)-1H-indazol-4-yl)quinazolin-4-yl)-6-methyl-1,4-oxazepan-6-ol] | 7 | 4 | 87 | – |
| CCc1c(F)ccc2cc(O)cc(-c3c(N)cc4c(N5CCCOCC5)nc(OC[C@@]56CCCN5C[C@H](F)C6)nc4c3F)c12 [Example 46, 4-(6-Amino-8-fluoro-2-(((2R,7aS)-2-fluorotetrahydro-1H-pyrrolizin-7a(5H)-yl)methoxy)-4-(1,4-oxazepan-4-yl)quinazolin-7-yl)-5-ethyl-6-fluoronaphthalen-2-ol] | 79 | 36 | 2570 | – |
| CCc1c(F)ccc2cc(O)cc(-c3c(F)cc4c(N5CCC[C@]6(COC(=O)O6)C5)nc(OC[C@@]56CCCN5C[C@H](F)C6)nc4c3F)c12 (single isomer, unassigned) [Example 93] | 7 | 5 | 28 | – |
| C/C=C\c1c(Cl)cc2[nH]ncc2c1-c1ccc2c(N3CCOC[C@@](C)(O)C3)nc(OC[C@@]34CCCN3C[C@H](F)C4)nc2c1F [Example 105, (6S)-4-(7-(6-Chloro-5-((Z)-prop-1-en-1-yl)-1H-indazol-4-yl)-8-fluoro-2-(((2R,7aS)-2-fluorotetrahydro-1H-pyrrolizin-7a(5H)-yl)methoxy)quinazolin-4-yl)-6-methyl-1,4-oxazepan-6-ol] | 3 | 3 | 32 | – |
| CCc1c(F)ccc2cc(O)cc(-c3c(F)cc4c(N5CCCC6(CCC(=O)O6)C5)nc(OC[C@@]56CCCN5C[C@H](F)C6)nc4c3F)c12 (stereo partly drawn) [Example 92, 7-(7-(8-Ethyl-7-fluoro-3-hydroxynaphthalen-1-yl)-6,8-difluoro-2-(((2R,7aS)-2-fluorotetrahydro-1H-pyrrolizin-7a(5H)-yl)methoxy)quinazolin-4-yl)-1-oxa-7-azaspiro[4.5]decan-2-one] | 7 | 5 | 28 | – |
| CCC1CCCc2cc(O)cc(-c3ccc4c(N5CCC[C@@](C)(O)C5)nc(OC[C@@]56CCCN5C[C@H](F)C6)nc4c3F)c21 (stereo partly drawn) [Example 95, (3R)-1-(7-(8-Ethyl-3-hydroxy-5,6,7,8-tetrahydronaphthalen-1-yl)-8-fluoro-2-(((2R,7aS)-2-fluorotetrahydro-1H-pyrrolizin-7a(5H)-yl)methoxy)quinazolin-4-yl)-3-methylpiperidin-3-ol] | 12 | 9 | 180 | – |
| C#Cc1c(F)ccc2cccc(-c3c(F)cc4c(N5CCC[C@@](C)(O)C5)nc(OC[C@@]56CCCN5C[C@H](F)C6)nc4c3F)c12 (single isomer, unassigned) [Example 67] | 4 | 3 | 338 | – |
| C#Cc1cccc2cc(O)cc(-c3c(F)cc4c(N5CCC[C@@](C)(O)C5)nc(OC[C@@]56CCCN5C[C@H](F)C6)nc4c3F)c12 (single isomer, unassigned) [Example 12] | 1 | 1 | 5 | – |
| C#Cc1c(F)ccc2cc(O)cc(-c3c(F)cc4c(N5CCC[C@@](C)(O)C5)nc(OC[C@@]56CCCN5C[C@H](F)C6)nc4c3F)c12 (single isomer, unassigned) [Example 13] | 968 | 1254 | – | 205 |
| CCc1c(F)ccc2cc(O)cc(-c3c(F)cc4c(N5CCC[C@@](C)(O)C5)nc(OC[C@@]56CCCN5C[C@H](F)C6)nc4c3F)c12 (single isomer, unassigned) [Example 2] | 1 | 1 | 9 | – |
| Oc1cc(-c2ccc3c(N4CCCOCC4)nc(OCC45CCCN4CCC5)nc3c2F)c2ccccc2c1 [Example 43, 4-(8-Fluoro-4-(1,4-oxazepan-4-yl)-2-((tetrahydro-1H-pyrrolizin-7a(5H)-yl)methoxy)quinazolin-7-yl)naphthalen-2-ol] | 22 | 13 | 1670 | – |
| CCc1c(F)ccc2cc(O)cc(-c3c(F)cc4c(N5CCCOCC5)nc(OC[C@@]56CCCN5C[C@H](F)C6)nc4c3F)c12 [Example 9, 4-(6,8-Difluoro-2-(((2R,7aS)-2-fluorotetrahydro-1H-pyrrolizin-7a(5H)-yl)methoxy)-4-(1,4-oxazepan-4-yl)quinazolin-7-yl)-5-ethyl-6-fluoronaphthalen-2-ol] | 4 | 3 | 259 | – |
| CCc1c(F)ccc2cc(O)cc(-c3ccc4c(N5CCCC6(CNC6=O)C5)nc(OC[C@@]56CCCN5C[C@H](F)C6)nc4c3F)c12 (stereo partly drawn) [Example 52, 6-(7-(8-Ethyl-7-fluoro-3-hydroxynaphthalen-1-y1)-8-fluoro-2-(((2R,7a.S)-2-fluorotetrahydro-1H-pyrrolizin-7a(5H)-yl)methoxy)quinazolin-4-yl)-2,6-diazaspiro[3.5]nonan-1-one] | 10 | 7 | 179 | – |
| CCc1c(F)ccc2cc(O)cc(-c3c(F)cc4c(N5CCC[C@]6(C5)C[C@@H](O)C6)nc(OC[C@@]56CCCN5C[C@H](F)C6)nc4c3F)c12 (single isomer, unassigned) [Example 91] | 5 | 3 | 16 | – |
| CCc1c(F)ccc2cc(N)cc(-c3c(F)cc4c(N5CCC[C@]6(CNC(=O)O6)C5)nc(OC[C@@]56CCCN5C[C@H](F)C6)nc4c3F)c12 (single isomer, unassigned) [Example 97] | 4 | 2 | 29 | – |
| CCc1c(F)ccc2cc(O)cc(-c3c(F)cc4c(N5[C@H]6CCC(O)[C@@H]5CC6)nc(OC[C@@]56CCCN5C[C@H](F)C6)nc4c3F)c12 (mixture of isomers) [Example 55, rac-(1S,5R)-8-(7-(8-Ethyl-7-fluoro-3-hydroxynaphthalen-1-yl)-6,8-difluoro-2-(((2R,7aS)-2-fluorotetrahydro-1H-pyrrolizin-7a(5H)-yl)methoxy)quinazolin-4-yl)-8-azabicyclo[3.2.1]octan-2-ol] | 21 | 11 | 822 | – |
| CCc1c(F)ccc2cc(O)cc(-c3ccc4c(N5CCC[C@]6(COC(=O)O6)C5)nc(OC[C@@]56CCCN5C[C@H](F)C6)nc4c3F)c12 (single isomer, unassigned) [Example 86] | 6 | 4 | 52 | – |
